Source: patent US8067454B2, “Thio-substituted Anthra [1, 2-d] imidazole- 6, 11-dione derivatives, preparation method and application thereof” (National Defense Medical Center, priority 2010, dated 2011)

What was measured:
OVCAR-4 = test: NCI 60-cell drug screen, Ovarian Cancer OVCAR-4; type: cell-based, human; settings: 1.00E−5 Molar
HOP-62 = test: NCI 60-cell drug screen, Non-Small Cell Lung Cancer HOP-62; type: cell-based, human; settings: 1.00E−5 Molar
SN12C = test: NCI 60-cell drug screen, Renal Cancer SN12C; type: cell-based, human; settings: 1.00E−5 Molar
SF-539 = test: NCI 60-cell drug screen, CNS Cancer SF-539; type: cell-based, human; settings: 1.00E−5 Molar
RXF 393 = test: NCI 60-cell drug screen, Renal Cancer RXF 393; type: cell-based, human; settings: 1.00E−5 Molar
SK-MEL-2 = test: NCI 60-cell drug screen, Melanoma SK-MEL-2; type: cell-based, human; settings: 1.00E−5 Molar
HOP-92 = test: NCI 60-cell drug screen, Non-Small Cell Lung Cancer HOP-92; type: cell-based, human; settings: 1.00E−5 Molar
HCC-2998 = test: NCI 60-cell drug screen, Colon Cancer HCC-2998; type: cell-based, human; settings: 1.00E−5 Molar
M14 = test: NCI 60-cell drug screen, Melanoma M14; type: cell-based, human; settings: 1.00E−5 Molar
NCI-H522 = test: NCI 60-cell drug screen, Non-Small Cell Lung Cancer NCI-H522; type: cell-based, human; settings: 1.00E−5 Molar
SNB-75 = test: NCI 60-cell drug screen, CNS Cancer SNB-75; type: cell-based, human; settings: 1.00E−5 Molar
SK-OV-3 = test: NCI 60-cell drug screen, Ovarian Cancer SK-OV-3; type: cell-based, human; settings: 1.00E−5 Molar
T-47D = test: NCI 60-cell drug screen, Breast Cancer T-47D; type: cell-based, human; settings: 1.00E−5 Molar
UACC-62 = test: NCI 60-cell drug screen, Melanoma UACC-62; type: cell-based, human; settings: 1.00E−5 Molar
BT-549 = test: NCI 60-cell drug screen, Breast Cancer BT-549; type: cell-based, human; settings: 1.00E−5 Molar
SF-295 = test: NCI 60-cell drug screen, CNS Cancer SF-295; type: cell-based, human; settings: 1.00E−5 Molar
MDA-MB-231/ATCC = test: NCI 60-cell drug screen, Breast Cancer MDA-MB-231/ATCC; type: cell-based, human; settings: 1.00E−5 Molar
A498 = test: NCI 60-cell drug screen, Renal Cancer A498; type: cell-based, human; settings: 1.00E−5 Molar
SR = test: NCI 60-cell drug screen, Leukemia SR; type: cell-based, human; settings: 1.00E−5 Molar
HL-60(TB) = test: NCI 60-cell drug screen, Leukemia HL-60(TB); type: cell-based, human; settings: 1.00E−5 Molar
SNB-19 = test: NCI 60-cell drug screen, CNS Cancer SNB-19; type: cell-based, human; settings: 1.00E−5 Molar
GBM8401 = test: MTT assay, GBM8401 tumor cell; settings: concentration 10 μM, tumor cell
SK-MEL-5 = test: NCI 60-cell drug screen, Melanoma SK-MEL-5; type: cell-based, human; settings: 1.00E−5 Molar
SF-268 = test: NCI 60-cell drug screen, CNS Cancer SF-268; type: cell-based, human; settings: 1.00E−5 Molar
OVCAR-5 = test: NCI 60-cell drug screen, Ovarian Cancer OVCAR-5; type: cell-based, human; settings: 1.00E−5 Molar
OVCAR-8 = test: NCI 60-cell drug screen, Ovarian Cancer OVCAR-8; type: cell-based, human; settings: 1.00E−5 Molar
CCRF-CEM = test: NCI 60-cell drug screen, Leukemia CCRF-CEM; type: cell-based, human; settings: 1.00E−5 Molar
HCT-15 = test: NCI 60-cell drug screen, Colon Cancer HCT-15; type: cell-based, human; settings: 1.00E−5 Molar
LOX IMVI = test: NCI 60-cell drug screen, Melanoma LOX IMVI; type: cell-based, human; settings: 1.00E−5 Molar
MALME-3M = test: NCI 60-cell drug screen, Melanoma MALME-3M; type: cell-based, human; settings: 1.00E−5 Molar
KM12 = test: NCI 60-cell drug screen, Colon Cancer KM12; type: cell-based, human; settings: 1.00E−5 Molar
TK-10 = test: NCI 60-cell drug screen, Renal Cancer TK-10; type: cell-based, human; settings: 1.00E−5 Molar
A549/ATCC = test: NCI 60-cell drug screen, Non-Small Cell Lung Cancer A549/ATCC; type: cell-based, human; settings: 1.00E−5 Molar
NCI/ADR-RES = test: NCI 60-cell drug screen, Ovarian Cancer NCI/ADR-RES; type: cell-based, human; settings: 1.00E−5 Molar
Protocol: In brief, cellular protein levels were determined after 48 hours of drug exposure by sulforhodamine B colorimetry. Through the use of a time 0 cell control, the cell growth can be determined for each cell line thus allowing calculations of the 50% growth inhibitory concentration (GI50), the total growth inhibition (TGI), and the 50% lethal concentration (LC50). Comparison to plates not exposed to drug permits determination of concentration and times of exposure conferring 50% net growth inhibition (GI50), TGI, and 50% cell kill (LC50).
From the data analysis it follows that approximately 95% of the actives (potent anticancer drugs) from the 60 cell line screen can be identified. By these criteria, 6 compounds (each with its certification number, refer to Table 2) of the invention were reported that having anticancer activity.
The screening system in United State National Cancer Institute (NCI) consists of 60 kinds of different human cancer cells, which can be used to assay the growth-inhibiting ability or cell toxicity of a compound against various cancer and tumor at a certain concentration.
NCI had selected 6 compounds f1-0, f1-1, f3-1, f1-11, f1-2 and f1-15 as test compounds (Table 2). Among these compounds, compound f1-1 was effective against renal cancer cell strain CAKI-1, and could achieve an inhibition effect on the growth of said cancer cell up to −8.01. Compound f1-11 could achieve inhibiting effects against leukemia cell line CCRF-CEM and RPMI-8226, up to −15.39 and −60.17, respectively. Compound f1-2 was effective against central nervous system cancer cell line SNB-75, and could achieve an effect of inhibiting said cancer cell growth up to −9.55. Compound f1-15 was effective against leukemia (blood cancer) cell line K-562, MOLT-4, and RPMI-8226, and could achieve effects of inhibiting said cancer cells growth up to −31.59, −2.90 and −13.69, respectively. Further, compound f1-15 was effective also against renal cancer cell line CAKI-1, and could achieve an effect of inhibiting said cancer cell growth up to −14.89.

NCI-H226 = test: NCI 60-cell drug screen, Non-Small Cell Lung Cancer NCI-H226; type: cell-based, human; settings: 1.00E−5 Molar
SK-MEL-28 = test: NCI 60-cell drug screen, Melanoma SK-MEL-28; type: cell-based, human; settings: 1.00E−5 Molar
RPMI-8226 = test: NCI 60-cell drug screen, Leukemia RPMI-8226; type: cell-based, human; settings: 1.00E−5 Molar
ACHN = test: NCI 60-cell drug screen, Renal Cancer ACHN; type: cell-based, human; settings: 1.00E−5 Molar
786-0 = test: NCI 60-cell drug screen, Renal Cancer 786-0; type: cell-based, human; settings: 1.00E−5 Molar

Row | Compound | Growth Percent, OVCAR-4 (OVCAR-4) [%] | Growth Percent, HOP-62 (HOP-62) [%] | Growth Percent, SN12C (SN12C) [%] | Growth Percent, SF-539 (SF-539) [%] | Growth Percent, RXF 393 (RXF 393) [%] | Growth Percent, SK-MEL-2 (SK-MEL-2) [%] | Growth Percent, HOP-92 (HOP-92) [%] | Growth Percent, HCC-2998 (HCC-2998) [%] | Growth Percent, M14 (M14) [%] | Growth Percent, NCI-H522 (NCI-H522) [%] | Growth Percent, SNB-75 (SNB-75) [%] | Growth Percent, SK-OV-3 (SK-OV-3) [%] | Growth Percent, T-47D (T-47D) [%] | Growth Percent, UACC-62 (UACC-62) [%] | Growth Percent, BT-549 (BT-549) [%] | Growth Percent, SF-295 (SF-295) [%] | Growth Percent, MDA-MB-231/ATCC (MDA-MB-231/ATCC) [%] | Growth Percent, A498 (A498) [%] | Growth Percent, SR (SR) [%] | Growth Percent, HL-60(TB) (HL-60(TB)) [%] | other results
1 | CCCSc1nc2ccc3c(c2[nH]1)C(=O)c1ccccc1C3=O [f1-2, 2-(propylthio)-1H-anthra[1,2-d]imidazole-6,11-dione] | 42.16 | 59.09 | 80.41 | 23.99 | 20.07 | 79.33 | 17.25 | 81.92 | 89.99 | 72.38 | −9.55 | 38.92 | 53.72 | 51.07 | 76.00 | 37.25 | 26.44 | 57.26 | 71.03 | 74.23 | Growth Percent, SNB-19 (SNB-19): 82.03%; Cell survival rate (%) GBM8401 (GBM8401): 62 ± 18%; Growth Percent, SK-MEL-5 (SK-MEL-5): 78.52%; Growth Percent, SF-268 (SF-268): 47.81%; Growth Percent, OVCAR-5 (OVCAR-5): 99.67%; Growth Percent, OVCAR-8 (OVCAR-8): 44.68%; Growth Percent, CCRF-CEM (CCRF-CEM): 70.83%; Growth Percent, HCT-15 (HCT-15): 67.65%; Growth Percent, LOX IMVI (LOX IMVI): 62.57%; Growth Percent, MALME-3M (MALME-3M): 88.24%; Growth Percent, KM12 (KM12): 55.17%; Growth Percent, TK-10 (TK-10): 35.55%; Growth Percent, A549/ATCC (A549/ATCC): 59.15%; Growth Percent, NCI/ADR-RES (NCI/ADR-RES): 50.22%; Growth Percent, NCI-H226 (NCI-H226): 50.24%; Growth Percent, SK-MEL-28 (SK-MEL-28): 92.59%; Growth Percent, RPMI-8226 (RPMI-8226): 71.75%; Growth Percent, ACHN (ACHN): 27.16%; Growth Percent, 786-0 (786-0): 21.82%
2 | O=C1c2ccccc2C(=O)c2c1ccc1nc(SCCN3CCCC3)[nH]c21 [f1-11] | 57.23 | 73.74 | 52.94 | 62.25 | 22.62 | 106.62 | 35.17 | 71.50 | 70.87 | 81.51 | 81.75 | 55.57 | 83.06 | 80.95 | 78.62 | 76.91 | 63.52 | 71.37 | 20.25 | 37.41 | Growth Percent, SNB-19 (SNB-19): 60.47%; Cell survival rate (%) GBM8401 (GBM8401): 78 ± 10%; Growth Percent, SK-MEL-5 (SK-MEL-5): 78.52%; Growth Percent, SF-268 (SF-268): 42.04%; Growth Percent, OVCAR-5 (OVCAR-5): 87.49%; Growth Percent, OVCAR-8 (OVCAR-8): 49.38%; Growth Percent, CCRF-CEM (CCRF-CEM): −15.39%; Growth Percent, HCT-15 (HCT-15): 40.36%; Growth Percent, LOX IMVI (LOX IMVI): 11.89%; Growth Percent, MALME-3M (MALME-3M): 112.31%; Growth Percent, KM12 (KM12): 19.62%; Growth Percent, TK-10 (TK-10): 36.86%; Growth Percent, A549/ATCC (A549/ATCC): 35.52%; Growth Percent, NCI/ADR-RES (NCI/ADR-RES): 53.74%; Growth Percent, NCI-H226 (NCI-H226): 88.06%; Growth Percent, SK-MEL-28 (SK-MEL-28): 100.23%; Growth Percent, RPMI-8226 (RPMI-8226): −60.17%; Growth Percent, ACHN (ACHN): 34.58%; Growth Percent, 786-0 (786-0): 77.12%
